{"source": "patent US11572590B2", "about": "“Methods for evaluating tumor cell spheroids using 3D microfluidic cell culture device” (Dana-Farber Cancer Institute, Inc., priority 2017, dated 2023)", "test_in_all_cases": "SelectScreen Kinase Profiling, single point inhibition and IC50 for off-target kinases", "assay_type_in_all_cases": "biochemical", "key": {"off-target kinases [1]": {"molecular_target": "off-target kinases (Homo sapiens, UniProt P10721, D816V)", "sequence (P10721 26-976 D816V)": "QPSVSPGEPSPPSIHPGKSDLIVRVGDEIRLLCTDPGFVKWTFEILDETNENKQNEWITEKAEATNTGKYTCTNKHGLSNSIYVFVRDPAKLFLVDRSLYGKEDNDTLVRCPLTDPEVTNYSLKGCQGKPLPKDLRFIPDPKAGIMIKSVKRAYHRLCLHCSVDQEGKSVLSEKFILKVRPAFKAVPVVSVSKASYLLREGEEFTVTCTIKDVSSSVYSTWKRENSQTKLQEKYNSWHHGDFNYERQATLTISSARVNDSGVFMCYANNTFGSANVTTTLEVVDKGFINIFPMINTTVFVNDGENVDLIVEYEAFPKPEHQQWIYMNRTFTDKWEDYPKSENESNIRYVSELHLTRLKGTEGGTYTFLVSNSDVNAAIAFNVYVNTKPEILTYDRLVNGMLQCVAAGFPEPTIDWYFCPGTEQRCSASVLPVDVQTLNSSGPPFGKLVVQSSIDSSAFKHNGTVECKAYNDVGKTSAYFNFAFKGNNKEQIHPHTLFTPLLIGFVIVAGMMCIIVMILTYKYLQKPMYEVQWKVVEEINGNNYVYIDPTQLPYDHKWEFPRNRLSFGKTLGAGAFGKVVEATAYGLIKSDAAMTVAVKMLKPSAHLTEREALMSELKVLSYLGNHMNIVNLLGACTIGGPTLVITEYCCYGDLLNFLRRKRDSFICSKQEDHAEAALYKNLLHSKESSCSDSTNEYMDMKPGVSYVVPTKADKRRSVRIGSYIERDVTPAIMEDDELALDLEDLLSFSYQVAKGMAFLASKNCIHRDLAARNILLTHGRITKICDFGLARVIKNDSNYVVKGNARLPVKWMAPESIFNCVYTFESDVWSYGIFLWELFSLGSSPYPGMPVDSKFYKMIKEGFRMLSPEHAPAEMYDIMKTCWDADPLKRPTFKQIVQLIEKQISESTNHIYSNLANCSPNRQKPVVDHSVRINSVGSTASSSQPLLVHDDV", "conditions": "KIT D816V, LanthaScreen Binding"}, "off-target kinases [2]": {"molecular_target": "off-target kinases (Homo sapiens, UniProt P49761)", "sequence (P49761 whole entry)": "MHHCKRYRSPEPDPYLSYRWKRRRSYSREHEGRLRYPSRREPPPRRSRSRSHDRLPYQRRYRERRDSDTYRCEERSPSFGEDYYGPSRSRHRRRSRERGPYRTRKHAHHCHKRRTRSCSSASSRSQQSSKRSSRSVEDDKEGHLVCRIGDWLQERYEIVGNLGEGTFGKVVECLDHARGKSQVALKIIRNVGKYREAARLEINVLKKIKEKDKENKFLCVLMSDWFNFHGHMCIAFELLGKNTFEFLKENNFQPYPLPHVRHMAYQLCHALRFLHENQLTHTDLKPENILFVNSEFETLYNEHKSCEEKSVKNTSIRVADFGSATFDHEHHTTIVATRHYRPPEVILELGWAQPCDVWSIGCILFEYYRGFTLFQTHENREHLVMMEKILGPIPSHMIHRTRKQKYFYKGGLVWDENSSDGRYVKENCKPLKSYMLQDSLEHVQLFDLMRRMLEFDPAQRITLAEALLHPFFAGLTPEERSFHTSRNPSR", "conditions": "CLK3, ZLYTE, ATP Km app"}, "off-target kinases [3]": {"molecular_target": "off-target kinases (Homo sapiens, UniProt P53779)", "sequence (P53779 whole entry)": "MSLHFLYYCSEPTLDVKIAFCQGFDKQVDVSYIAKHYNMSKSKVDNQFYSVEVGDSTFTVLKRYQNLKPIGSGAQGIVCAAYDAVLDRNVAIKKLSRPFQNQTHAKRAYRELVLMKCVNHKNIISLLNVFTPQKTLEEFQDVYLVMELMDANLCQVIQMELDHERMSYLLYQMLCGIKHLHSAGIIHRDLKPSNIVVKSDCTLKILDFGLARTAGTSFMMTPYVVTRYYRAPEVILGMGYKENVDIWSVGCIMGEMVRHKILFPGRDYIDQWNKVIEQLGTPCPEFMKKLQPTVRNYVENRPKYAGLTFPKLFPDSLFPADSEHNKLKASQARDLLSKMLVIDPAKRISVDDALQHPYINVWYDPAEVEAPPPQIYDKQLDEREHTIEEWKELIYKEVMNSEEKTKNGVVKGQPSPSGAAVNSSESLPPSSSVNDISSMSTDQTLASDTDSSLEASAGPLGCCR", "conditions": "MAPK10 (JNK3)"}, "off-target kinases [4]": {"molecular_target": "off-target kinases (Homo sapiens, UniProt Q13627)", "conditions": "DYRK1A, ZLYTE, ATP Km app"}, "off-target kinases [5]": {"molecular_target": "off-target kinases (Homo sapiens, UniProt Q9UM73, L1196M)", "sequence (Q9UM73 19-1620 L1196M)": "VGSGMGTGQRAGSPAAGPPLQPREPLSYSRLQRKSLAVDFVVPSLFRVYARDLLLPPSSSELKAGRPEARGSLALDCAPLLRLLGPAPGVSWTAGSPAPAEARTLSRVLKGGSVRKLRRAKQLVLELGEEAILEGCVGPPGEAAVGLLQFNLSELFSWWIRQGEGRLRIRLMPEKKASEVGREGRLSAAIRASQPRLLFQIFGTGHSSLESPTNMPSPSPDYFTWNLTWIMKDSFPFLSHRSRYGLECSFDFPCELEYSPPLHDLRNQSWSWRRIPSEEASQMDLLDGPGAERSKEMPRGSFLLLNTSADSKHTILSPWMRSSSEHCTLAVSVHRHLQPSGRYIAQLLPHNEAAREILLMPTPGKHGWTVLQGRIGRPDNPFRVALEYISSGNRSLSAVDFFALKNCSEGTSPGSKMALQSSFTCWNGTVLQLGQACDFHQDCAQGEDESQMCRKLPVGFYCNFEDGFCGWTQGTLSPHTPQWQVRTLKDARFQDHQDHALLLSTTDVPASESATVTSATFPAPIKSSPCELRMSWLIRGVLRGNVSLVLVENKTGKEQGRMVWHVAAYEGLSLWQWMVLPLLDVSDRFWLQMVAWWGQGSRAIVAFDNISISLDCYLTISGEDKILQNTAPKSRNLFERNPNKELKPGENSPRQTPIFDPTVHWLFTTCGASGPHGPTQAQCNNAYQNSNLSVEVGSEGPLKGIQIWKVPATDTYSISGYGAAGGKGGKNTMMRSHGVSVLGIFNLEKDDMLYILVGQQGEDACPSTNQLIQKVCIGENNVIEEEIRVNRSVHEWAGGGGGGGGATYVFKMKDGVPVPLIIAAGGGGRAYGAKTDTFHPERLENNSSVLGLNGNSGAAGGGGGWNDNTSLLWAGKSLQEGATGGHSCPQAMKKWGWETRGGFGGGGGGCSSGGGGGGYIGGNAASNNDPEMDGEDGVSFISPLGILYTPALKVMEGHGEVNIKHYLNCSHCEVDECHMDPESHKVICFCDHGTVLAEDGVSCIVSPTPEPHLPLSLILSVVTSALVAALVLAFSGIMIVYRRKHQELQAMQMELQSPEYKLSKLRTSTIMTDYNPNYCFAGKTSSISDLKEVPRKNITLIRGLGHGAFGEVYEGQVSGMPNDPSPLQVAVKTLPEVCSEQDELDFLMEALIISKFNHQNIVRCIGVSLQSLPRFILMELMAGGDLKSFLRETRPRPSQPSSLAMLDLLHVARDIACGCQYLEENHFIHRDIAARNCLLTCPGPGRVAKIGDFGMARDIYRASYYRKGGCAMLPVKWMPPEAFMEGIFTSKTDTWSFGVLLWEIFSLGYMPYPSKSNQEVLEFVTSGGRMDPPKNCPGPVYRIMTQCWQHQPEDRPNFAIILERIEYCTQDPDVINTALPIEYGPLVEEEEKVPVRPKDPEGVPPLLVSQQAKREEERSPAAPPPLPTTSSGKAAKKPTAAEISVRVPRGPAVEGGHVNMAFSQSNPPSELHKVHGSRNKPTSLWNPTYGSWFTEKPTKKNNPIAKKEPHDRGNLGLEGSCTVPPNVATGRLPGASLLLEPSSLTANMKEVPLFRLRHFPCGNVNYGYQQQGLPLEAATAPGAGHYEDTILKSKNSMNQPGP", "conditions": "ALKL1196M (mutant), LanthaScreen Binding"}, "off-target kinases [6]": {"molecular_target": "T1, off-target kinases (Homo sapiens, UniProt Q9UKI8)", "T1 sequence (Q9UKI8 1-766)": "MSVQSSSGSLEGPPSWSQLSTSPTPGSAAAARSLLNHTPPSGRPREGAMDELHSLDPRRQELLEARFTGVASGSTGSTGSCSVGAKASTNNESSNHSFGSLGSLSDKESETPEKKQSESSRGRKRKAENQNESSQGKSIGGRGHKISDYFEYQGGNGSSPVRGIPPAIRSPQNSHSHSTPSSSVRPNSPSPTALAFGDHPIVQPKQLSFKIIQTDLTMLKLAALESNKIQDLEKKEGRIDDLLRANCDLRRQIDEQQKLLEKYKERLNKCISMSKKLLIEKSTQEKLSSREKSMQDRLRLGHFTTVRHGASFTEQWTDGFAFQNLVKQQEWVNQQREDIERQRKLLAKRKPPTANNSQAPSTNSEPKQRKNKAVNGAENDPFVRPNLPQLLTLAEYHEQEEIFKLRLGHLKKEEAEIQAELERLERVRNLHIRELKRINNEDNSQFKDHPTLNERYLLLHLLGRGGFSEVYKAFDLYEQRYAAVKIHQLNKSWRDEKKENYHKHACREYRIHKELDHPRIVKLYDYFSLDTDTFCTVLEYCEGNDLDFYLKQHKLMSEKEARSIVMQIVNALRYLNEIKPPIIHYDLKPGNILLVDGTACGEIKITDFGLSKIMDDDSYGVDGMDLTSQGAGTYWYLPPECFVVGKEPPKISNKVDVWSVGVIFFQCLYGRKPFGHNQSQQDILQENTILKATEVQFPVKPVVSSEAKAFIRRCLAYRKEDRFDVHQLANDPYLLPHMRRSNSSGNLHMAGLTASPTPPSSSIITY", "conditions": "TLK1, LanthaScreen Binding"}, "off-target kinases [7]": {"molecular_target": "off-target kinases (Homo sapiens, UniProt Q9BWU1)", "sequence (Q9BWU1 whole entry)": "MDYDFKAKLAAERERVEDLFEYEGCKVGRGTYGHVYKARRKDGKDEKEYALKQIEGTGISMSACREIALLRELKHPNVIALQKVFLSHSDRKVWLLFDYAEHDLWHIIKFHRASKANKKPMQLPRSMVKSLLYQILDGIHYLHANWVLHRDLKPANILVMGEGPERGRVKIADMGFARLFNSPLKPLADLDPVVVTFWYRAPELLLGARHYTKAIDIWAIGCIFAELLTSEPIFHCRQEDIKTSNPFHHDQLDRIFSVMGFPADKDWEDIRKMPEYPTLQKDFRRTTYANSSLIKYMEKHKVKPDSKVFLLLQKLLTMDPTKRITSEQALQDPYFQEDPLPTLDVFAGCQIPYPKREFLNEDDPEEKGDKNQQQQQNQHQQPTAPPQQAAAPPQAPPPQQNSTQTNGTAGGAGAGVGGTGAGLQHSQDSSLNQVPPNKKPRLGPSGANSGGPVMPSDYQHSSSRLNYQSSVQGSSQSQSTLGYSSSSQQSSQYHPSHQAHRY", "conditions": "CDK11 (Inactive); Cmpd1 1000 μM; LanthaScreen Binding"}, "off-target kinases [8]": {"molecular_target": "off-target kinases (Homo sapiens, UniProt P29317)", "sequence (P29317 24-976)": "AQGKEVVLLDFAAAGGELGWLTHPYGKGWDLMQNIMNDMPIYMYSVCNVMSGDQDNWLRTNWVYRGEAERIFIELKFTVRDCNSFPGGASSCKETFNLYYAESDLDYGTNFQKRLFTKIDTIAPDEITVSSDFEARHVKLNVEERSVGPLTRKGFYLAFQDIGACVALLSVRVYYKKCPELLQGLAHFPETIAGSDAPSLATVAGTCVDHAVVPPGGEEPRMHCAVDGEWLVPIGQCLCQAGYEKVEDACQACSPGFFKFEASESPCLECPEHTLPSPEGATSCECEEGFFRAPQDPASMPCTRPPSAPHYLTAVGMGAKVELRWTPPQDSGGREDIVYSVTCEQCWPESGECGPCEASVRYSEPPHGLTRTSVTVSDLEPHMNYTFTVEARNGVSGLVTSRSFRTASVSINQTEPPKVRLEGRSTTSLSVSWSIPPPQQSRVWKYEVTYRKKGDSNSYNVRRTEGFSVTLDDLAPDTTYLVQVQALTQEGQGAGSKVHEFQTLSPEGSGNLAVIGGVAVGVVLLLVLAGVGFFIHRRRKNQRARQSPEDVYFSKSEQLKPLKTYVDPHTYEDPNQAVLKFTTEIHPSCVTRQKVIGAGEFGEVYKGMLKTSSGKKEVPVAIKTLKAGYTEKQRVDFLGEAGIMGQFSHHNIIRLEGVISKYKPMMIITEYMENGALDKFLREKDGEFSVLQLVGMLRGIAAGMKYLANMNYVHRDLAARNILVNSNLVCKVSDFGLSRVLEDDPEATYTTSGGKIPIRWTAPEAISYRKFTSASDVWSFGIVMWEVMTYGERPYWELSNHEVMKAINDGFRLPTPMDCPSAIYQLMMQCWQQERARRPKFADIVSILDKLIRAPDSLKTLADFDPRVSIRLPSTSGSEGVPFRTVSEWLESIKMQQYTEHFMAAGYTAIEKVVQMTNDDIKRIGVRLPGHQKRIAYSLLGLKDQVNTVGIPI", "conditions": "EPHA2, ZLYTE, ATP Km app"}, "off-target kinases [9]": {"molecular_target": "off-target kinases (Homo sapiens, UniProt Q02763, R849W)", "conditions": "TEK (TIE2) R849W, mutant y, LanthaScreen Binding"}}, "note": "Where two headings read alike, the source gives them in different places."}
{"smiles": "N#Cc1cc(-c2ncnc(Nc3ccc(N4CCN(C5COC5)CC4)cc3)n2)ccc1OC1CCOCC1", "note": "[Compound 1, 5-(4-((4-(4-(oxetan-3-yl)piperazin-1-yl)phenyl)amino)-1,3,5-triazin-2-yl)-2-((tetrahydro-2H-pyran-4-yl)oxy)benzonitrile]", "values": [{"measurement": "inhibition", "setting": "off-target kinases [1]; read-out: % Inhibition 1", "result": 83, "unit": "%"}, {"measurement": "inhibition", "setting": "off-target kinases [1]; read-out: % Inhibition 2", "result": 83, "unit": "%"}, {"measurement": "inhibition", "setting": "off-target kinases [1]; read-out: % Inhibition Avg", "result": 83, "unit": "%"}, {"measurement": "inhibition", "setting": "off-target kinases [2]; read-out: % Inhibition 1", "result": 1, "unit": "%"}, {"measurement": "inhibition", "setting": "off-target kinases [2]; read-out: % Inhibition 2", "result": 3, "unit": "%"}, {"measurement": "inhibition", "setting": "off-target kinases [2]; read-out: % Inhibition Avg", "result": 2, "unit": "%"}, {"measurement": "inhibition", "setting": "off-target kinases [3]; LanthaScreen Binding, read-out: % Inhibition 1", "result": 48, "unit": "%"}, {"measurement": "inhibition", "setting": "off-target kinases [3]; LanthaScreen Binding, read-out: % Inhibition 2", "result": 49, "unit": "%"}, {"measurement": "inhibition", "setting": "off-target kinases [3]; LanthaScreen Binding, read-out: % Inhibition Avg", "result": 49, "unit": "%"}, {"measurement": "inhibition", "setting": "off-target kinases [3]; ZLYTE, ATP 100, read-out: % Inhibition 1", "result": 20, "unit": "%"}, {"measurement": "inhibition", "setting": "off-target kinases [3]; ZLYTE, ATP 100, read-out: % Inhibition 2", "result": 21, "unit": "%"}, {"measurement": "inhibition", "setting": "off-target kinases [3]; ZLYTE, ATP 100, read-out: % Inhibition Avg", "result": 20, "unit": "%"}, {"measurement": "inhibition", "setting": "off-target kinases [4]; read-out: % Inhibition 1", "result": 30, "unit": "%"}, {"measurement": "inhibition", "setting": "off-target kinases [4]; read-out: % Inhibition 2", "result": 27, "unit": "%"}, {"measurement": "inhibition", "setting": "off-target kinases [4]; read-out: % Inhibition Avg", "result": 28, "unit": "%"}, {"measurement": "inhibition", "setting": "off-target kinases [5]; read-out: % Inhibition 1", "result": 1, "unit": "%"}, {"measurement": "inhibition", "setting": "off-target kinases [5]; read-out: % Inhibition 2", "result": 9, "unit": "%"}, {"measurement": "inhibition", "setting": "off-target kinases [5]; read-out: % Inhibition Avg", "result": 5, "unit": "%"}, {"measurement": "inhibition", "setting": "off-target kinases [6]; read-out: % Inhibition 1", "result": 13, "unit": "%"}, {"measurement": "inhibition", "setting": "off-target kinases [6]; read-out: % Inhibition 2", "result": 17, "unit": "%"}, {"measurement": "inhibition", "setting": "off-target kinases [6]; read-out: % Inhibition Avg", "result": 15, "unit": "%"}, {"measurement": "% Inhibition 1", "setting": "off-target kinases [7]", "result": "−1", "unit": "%"}, {"measurement": "% Inhibition 2", "setting": "off-target kinases [7]", "result": "−7", "unit": "%"}, {"measurement": "% Inhibition Avg", "setting": "off-target kinases [7]", "result": "−4", "unit": "%"}, {"measurement": "inhibition", "setting": "off-target kinases [8]; read-out: % Inhibition 1", "result": 1, "unit": "%"}, {"measurement": "inhibition", "setting": "off-target kinases [8]; read-out: % Inhibition 2", "result": 12, "unit": "%"}, {"measurement": "inhibition", "setting": "off-target kinases [8]; read-out: % Inhibition Avg", "result": 6, "unit": "%"}, {"measurement": "inhibition", "setting": "off-target kinases [9]; read-out: % Inhibition 1", "result": 40, "unit": "%"}, {"measurement": "inhibition", "setting": "off-target kinases [9]; read-out: % Inhibition 2", "result": 41, "unit": "%"}, {"measurement": "inhibition", "setting": "off-target kinases [9]; read-out: % Inhibition Avg", "result": 41, "unit": "%"}]}
